Data reported in US8487107B2, “Biphenyl compounds useful as muscarinic receptor antagonists” (Theravance, Inc., priority 2005, dated 2013).
Structures can show the parent of a compound that is named as a salt.

Experiments:
[1] = DSC thermal analysis (thermal decomposition); assay type: physicochemical; conditions: DSC trace, heating ramp 10° C./min
Procedure: DSC was performed using a TA Instruments Model Q-10 module with a Thermal Analyst controller, and data were collected and analyzed using TA Instruments Thermal Solutions software. A sample of about 1 mg of the crystalline diacetate salt was accurately weighed into an aluminum pan with lid, and evaluated using a linear heating ramp of 10° C./min from ambient temperature to approximately 300° C. The DSC cell was purged with dry nitrogen during use. A representative DSC trace for this salt is shown in FIG. 2 and depicts one transition at about 114° C., no thermal decomposition below about 160° C., and maximum endothermic heat flow at about 112° C.

[2] = Dynamic moisture sorption (DMS) assessment; assay type: physicochemical
Procedure: A dynamic moisture sorption (DMS) assessment (also known as a moisture sorption-desorption profile) was performed for samples of the crystalline diacetate salt using a VTI atmospheric microbalance, SGA-100 system (VTI Corp., Hialeah, Fla. 33016). A sample size of approximately 10 mg was used and the humidity was set at the ambient value at the start of the analysis. A typical DMS analysis consisted of three scans: ambient to 2% relative humidity (RH), 2% RH to 90% RH, 90% RH to 5% RH at a scan rate of 5% RH/step. The mass was measured every two minutes and the RH was changed to the next value (+/−5% RH) when the mass of the sample was stable to within 0.01% for 5 consecutive points.

| no thermal decomposition below (DSC) [1] | weight gain when exposed to up to 90% RH (DMS, reversible sorption/desorption profile) [2] | SMILES |
| --- | --- | --- |
| ≥ 160 °C | less than 18% | CN(CCN1CCC(OC(=O)Nc2ccccc2-c2ccccc2)CC1)C(=O)c1cccc(C(=O)NCCNCc2ccc(O)cc2)c1 [crystalline diacetate salt, biphenyl-2-ylcarbamic acid 1-[2-({3-[2-(4-hydroxybenzylamino)ethylcarbamoyl]benzoyl}methylamino)ethyl]piperidin-4-yl ester] |
| ≥ 150 °C | less than 11% | CN(CCN1CCC(OC(=O)Nc2ccccc2-c2ccccc2)CC1)C(=O)c1cccc(C(=O)NCCNCc2ccc(O)cc2)c1 [crystalline dipropionate salt, Biphenyl-2-ylcarbamic Acid 1-[2-({3-[2-(4-Hydroxybenzylamino)ethylcarbamoyl]benzoyl}methylamino)ethyl]piperidin-4-yl Ester] |
| ≥ 150 °C | less than 14% | CN(CCN1CCC(OC(=O)Nc2ccccc2-c2ccccc2)CC1)C(=O)c1cccc(C(=O)NCCNCc2ccc(O)cc2)c1 [crystalline monooxalate salt, Biphenyl-2-ylcarbamic Acid 1-[2-({3-[2-(4-Hydroxybenzylamino)ethylcarbamoyl]benzoyl}methylamino)ethyl]piperidin-4-yl Ester] |
